Test results: patent publication USRE49687E1, “Thienopyrimidine and thienopyridine compounds and methods of use thereof” (The Regents of The University of Michigan, priority 2014, dated 2023)

Each compound was assayed against T1, menin-MLL interaction (Homo sapiens, UniProt O00255) (assay: Fluorescence polarization (FP) competition assay of the menin-MLL interaction). Settings: inhibition of the menin-MLL interaction; read-out: IC50 values for Table 1 inhibitors of menin.
T1 sequence (O00255 1-610): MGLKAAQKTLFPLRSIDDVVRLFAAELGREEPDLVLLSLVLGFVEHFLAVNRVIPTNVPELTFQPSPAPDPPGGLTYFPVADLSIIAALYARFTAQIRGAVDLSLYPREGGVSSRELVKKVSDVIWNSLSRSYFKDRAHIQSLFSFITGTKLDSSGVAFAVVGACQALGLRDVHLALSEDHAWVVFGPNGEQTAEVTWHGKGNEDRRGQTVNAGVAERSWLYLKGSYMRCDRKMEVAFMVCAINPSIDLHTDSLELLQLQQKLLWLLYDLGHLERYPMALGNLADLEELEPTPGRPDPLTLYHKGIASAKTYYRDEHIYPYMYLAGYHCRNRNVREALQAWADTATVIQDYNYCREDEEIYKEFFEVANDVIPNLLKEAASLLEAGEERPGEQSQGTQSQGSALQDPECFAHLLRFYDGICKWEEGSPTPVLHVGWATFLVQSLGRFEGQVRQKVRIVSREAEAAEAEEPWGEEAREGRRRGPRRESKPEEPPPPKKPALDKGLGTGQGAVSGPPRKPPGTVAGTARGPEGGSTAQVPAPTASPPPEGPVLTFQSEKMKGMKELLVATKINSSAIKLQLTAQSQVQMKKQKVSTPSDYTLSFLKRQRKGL
Type: binding

SMILES | IC50 [nM]
C=CC(=O)Nc1ccc(C2(Cn3c(C#N)cc4c(C)c(CN5CCC(Nc6ncnc7sc(CC(F)(F)F)cc67)CC5)ccc43)CC2)cn1 [Compound 216] | 100 to 1000
C=CC(=O)NC1CCC(Cn2c(C#N)cc3c(C)c(CN4CCC(Nc5ncnc6sc(CC(F)(F)F)cc56)CC4)ccc32)C1 (stereo not shown) [Compound 219] | 30 to 100
C=CS(=O)(=O)N1CCN(CCn2c(C#N)cc3c(C)c(CN4CCC(Nc5ncnc6sc(CC(F)(F)F)cc56)CC4)ccc32)C[C@@H]1C [Compound 230] | < 30
C=CC(=O)N1CCC(Cn2c(C#N)cc3c(C)c(CN4CCC(Nc5ncnc6sc(CC(F)(F)F)cc56)CC4)ccc32)CC1 [Compound 233] | 30 to 100
C=CC(=O)Nc1ccc([C@](C)(O)Cn2c(C#N)cc3c(C)c(CN4CCC(Nc5ncnc6sc(CC(F)(F)F)cc56)CC4)ccc32)cc1 [Compound 243] | 30 to 100
C=CC(=O)Nc1ccc([C@@](C)(O)Cn2c(C#N)cc3c(C)c(CN4CCC(Nc5ncnc6sc(CC(F)(F)F)cc56)CC4)ccc32)cc1 [Compound 244] | 30 to 100

More lines, now with the values ahead:

IC50 [nM] | SMILES
< 30 | C=CS(=O)(=O)N1CCN(CCn2c(C#N)cc3c(C)c(CN4CCC(Nc5ncnc6sc(CC(F)(F)F)cc56)CC4)ccc32)CC1 [Compound 3, 4-methyl-1-(2-(4-vinylsulfonylpiperazin-1-yl)ethyl)-5-((4-((6-(2,2,2-trifluoroethyl)thieno[2,3-d]pyrimidin-4-yl)amino)piperidin-1-yl)methyl)-1H-indole-2-carbonitrile]
100 to 1000 | Cc1c(CN2CCC(Nc3ncnc4sc(CC(F)(F)F)cc34)CC2)ccc2c1cc(C#N)n2CCP(C)(C)=O [Compound 218]
< 30 | C=CC(=O)N1CC2CCC(C1)N2CCn1c(C#N)cc2c(C)c(CN3CCC(Nc4ncnc5sc(CC(F)(F)F)cc45)CC3)ccc21 [Compound 229]
< 30 | C=CS(=O)(=O)Nc1ccc(CCn2c(C#N)cc3c(C)c(CN4CCC(Nc5ncnc6sc(CC(F)(F)F)cc56)CC4)ccc32)cc1 [Compound 231]
< 30 | C=CS(=O)(=O)NC1CCN(CCn2c(C#N)cc3c(C)c(CN4CCC(Nc5ncnc6sc(CC(F)(F)F)cc56)CC4)ccc32)CC1 [Compound 232]
30 to 100 | [2H]C([2H])=C([2H])C(=O)Nc1ccc(CCn2c(C#N)cc3c(C)c(CN4CCC(Nc5ncnc6sc(CC(F)(F)F)cc56)CC4)ccc32)cc1 [Compound 241]
30 to 100 | [2H]C([2H])=C([2H])C(=O)Nc1ccc(C(O)Cn2c(C#N)cc3c(C)c(CN4CCC(Nc5ncnc6sc(CC(F)(F)F)cc56)CC4)ccc32)cn1 (stereo not shown) [Compound 242]
100 to 1000 | CCC(=O)Nc1ccc(CCn2c(C#N)cc3c(C)c(CN4CCC(Nc5ncnc6sc(CC(F)(F)F)cc56)CC4)ccc32)cn1 [Compound 254]

The compounds below were run on MV4; 11 cells (harboring MLL-AF4 fusion protein) (assay: In vivo xenograft study with MV4;11 cells injected subcutaneously). Settings: once daily, i.p., 25 mg/kg; treatment initiated when tumors reached ~100 mm^3.
Design: species or system CB17 SCID mice
Description: FIG. 3 depicts in vivo xenograft studies with MV4; 11 cells (harboring MLL-AF4 fusion protein) injected subcutaneously into CB17 SCID mice.
Efficacy Study in Mouse Xenograft Tumor Model.
Immunodeficient mice, such as 8-10 week-old female nude (nu/nu) mice, are used for in vivo efficacy studies in accordance with the guidelines approved by IACUC. Leukemia cells, such as human MV4-11 leukemia cells available from ATCC, are implanted subcutaneously via needle into female nude mice (5×10^6 cells/mouse). When the tumor reaches a size of approximately 100 mm^3 in mice, the tumor-bearing mice are randomly assigned to a vehicle control or compound treatment group (8 animals per group). Animals are treated with a compound of the present invention by oral gavage or intraperitoneal injection in an appropriate amount and frequency as can be determined by the skilled artisan without undue experimentation. Subcutaneous tumor volume in nude mice and mice body weight are measured twice weekly. Tumor volumes are calculated by measuring two perpendicular diameters with calipers (V=(length×width^2)/2). Percentage tumor growth inhibition (% TGI=1−[change of tumor volume in treatment group/change of tumor volume in control group]*100) is used to evaluate anti-tumor efficacy. Statistical significance is evaluated using a one-tailed, two sample t test. P<0.05 is considered statistically significant.

SMILES | tumor volume
C=CS(=O)(=O)N1CCN(CCn2c(C#N)cc3c(C)c(CN4CCC(Nc5ncnc6sc(CC(F)(F)F)cc56)CC4)ccc32)CC1 [Compound 3, 4-methyl-1-(2-(4-vinylsulfonylpiperazin-1-yl)ethyl)-5-((4-((6-(2,2,2-trifluoroethyl)thieno[2,3-d]pyrimidin-4-yl)amino)piperidin-1-yl)methyl)-1H-indole-2-carbonitrile] | strong reduction of tumor volume

These compounds were tested against T2, menin (Homo sapiens, UniProt O00255) (assay: Crystal structure of menin in complex with compound). Settings: FIG. 1.
T2 sequence (O00255 1-610): T1 sequence (O00255 1-610)

SMILES | covalent binding of the compound to a Cys residue on menin
C=CS(=O)(=O)N1CCN(CCn2c(C#N)cc3c(C)c(CN4CCC(Nc5ncnc6sc(CC(F)(F)F)cc56)CC4)ccc32)CC1 [Compound 3, 4-methyl-1-(2-(4-vinylsulfonylpiperazin-1-yl)ethyl)-5-((4-((6-(2,2,2-trifluoroethyl)thieno[2,3-d]pyrimidin-4-yl)amino)piperidin-1-yl)methyl)-1H-indole-2-carbonitrile] | covalent binding of the compound to a Cys residue on menin
